Measurements: patent publication US8952024B2, “Herbicidal pyrimidone derivatives” (E I du Pont de Nemours and Company, priority 2009, dated 2015)

What was measured:
Type in all cases: in vivo
[1] = system: blackgrass (Alopecurus myosuroides); test: Test B pre-/postemergence plant response
Procedure, shortened: (§1)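 Compound in solvent + surfactant applied pre-em (loam/sand) or post-em (plants 2–18 cm, peat medium); greenhouse hold 13–15 days; visual 0–100 control score.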

[2] = system: yellow nutsedge (Cyperus esculentus); test: Test B pre-/postemergence plant response
Procedure, shortened: as §1

[3] = system: lambsquarters (Chenopodium album); test: Test B pre-/postemergence plant response
Procedure, shortened: as §1

[4] = system: Surinam grass (Brachiaria decumbens); test: Test B pre-/postemergence plant response
Procedure, shortened: as §1

[5] = system: johnsongrass (Sorghum halepense); test: Test B pre-/postemergence plant response
Procedure, shortened: as §1

corn (Zea mays) = test: Test B pre-/postemergence plant response
Procedure, shortened: as §1

[6] = system: woolly cupgrass (Eriochloa villosa); test: Test B pre-/postemergence plant response
Procedure, shortened: as §1

[7] = system: Italian ryegrass (Lolium multiflorum); test: Test B pre-/postemergence plant response
Procedure, shortened: as §1

[8] = system: ragweed (common ragweed, Ambrosia elatior); test: Test B pre-/postemergence plant response
Procedure, shortened: as §1

[9] = system: velvetleaf (Abutilon theophrasti); test: Test B pre-/postemergence plant response
Procedure, shortened: as §1

soybean (Glycine max) = test: Test B pre-/postemergence plant response
Procedure, shortened: as §1

[10] = system: bermudagrass (Cynodon dactylon); test: Test B pre-/postemergence plant response
Procedure, shortened: as §1

[11] = system: large crabgrass (Digitaria sanguinalis); test: Test B pre-/postemergence plant response
Procedure, shortened: as §1

wild oat (Avena fatua) = test: Test B pre-/postemergence plant response
Procedure, shortened: as §1

[12] = system: canarygrass (Phalaris minor); test: Test B postemergence plant response
Procedure, shortened: (§2)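 Visual ratings from 0 (no effect) to 100 (complete control), made against controls 13–15 days after treatment, kept in a greenhouse. Compounds were applied postemergence to potted plants at the 1- to 4-leaf stage (2–18 cm).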

[13] = system: chickweed (Stellaria media); test: Test B postemergence plant response
Procedure, shortened: as §2

[14] = system: windgrass (Apera spica-venti); test: Test B postemergence plant response
Procedure, shortened: as §2

[15] = system: winter barley (Hordeum vulgare); test: Test B postemergence plant response
Procedure, shortened: as §2

[16] = 31 g ai/ha, postemergence, scale 0 to 100, 0 is no effect, 100 is complete control
[17] = 62 g ai/ha, postemergence, 0 is no effect, 100 is complete control, 13 to 15 days
[18] = Postemergence, 125 g ai/ha, visual rating after 13 to 15 days, scale 0 (no effect) to 100 (complete control)
[19] = Postemergence, 250 g ai/ha, scale 0 to 100 (0 no effect, 100 complete control)
[20] = Preemergence, 31 g ai/ha, scale 0 to 100 (0 no effect, 100 complete control)
[21] = Preemergence, 62 g ai/ha, scale 0 to 100, 0 no effect, 100 complete control
[22] = Preemergence, 125 g ai/ha, scale 0 to 100, 0 no effect, 100 complete control
[23] = Preemergence, 250 g ai/ha, 0 to 100 scale

In the case of `CCCCn1c(CCC)ncc(C(=O)C2=C(O)CCCC2=O)c1=O` [Compound 75], the “Plant response rating, Blackgrass” value [1, 16] is reported as 0, the “Blackgrass plant response rating (0 to 100 scale)” value [1, 17] is reported as 0 and the “Plant response rating, Blackgrass” value [1, 18] is reported as 0. The “Plant response rating, Blackgrass” value [1, 19] was 20, the “Plant response rating, Blackgrass” value [1, 20] was 0 and the “Plant response rating, Blackgrass” value [1, 21] was 0. For the same compound, the “Plant response rating, Blackgrass” value [1, 22] was 5, the “Blackgrass plant response rating” value [1, 23] was 10 and the “Plant response rating, Nutsedge, Yellow” value [2, 16] was 10. For the same compound, the “Nutsedge, Yellow plant response rating (0 to 100 scale)” value [2, 17] was 65, the “Plant response rating, Nutsedge, Yellow” value [2, 18] was 70 and the “Plant response rating, Nutsedge, Yellow” value [2, 19] was 75. The “Plant response rating, Nutsedge, Yellow” value [2, 20] was 60, the “Plant response rating, Nutsedge, Yellow” value [2, 21] was 80 and the “Plant response rating, Nutsedge, Yellow” value [2, 22] was 90. For the same compound, the “Nutsedge, Yellow plant response rating” value [2, 23] was 90, the “Plant response rating, Lambsquarters” value [3, 16] was 98 and the “Lambsquarters plant response rating (0 to 100 scale)” value [3, 17] was 100. For the same compound, the “Plant response rating, Lambsquarters” value [3, 18] was 100, the “Plant response rating, Lambsquarters” value [3, 19] was 100 and the “Plant response rating, Lambsquarters” value [3, 20] was 98. The “Plant response rating, Lambsquarters” value [3, 21] was 100, the “Plant response rating, Lambsquarters” value [3, 22] was 100 and the “Lambsquarters plant response rating” value [3, 23] was 100. The “Plant response rating, Surinam Grass” value [4, 16] was 50, the “Surinam Grass plant response rating (0 to 100 scale)” value [4, 17] was 50 and the “Plant response rating, Surinam Grass” value [4, 18] was 70. For the same compound, the “Plant response rating, Surinam Grass” value [4, 19] was 85, the “Plant response rating, Surinam Grass” value [4, 20] was 40 and the “Plant response rating, Surinam Grass” value [4, 21] was 60. The “Plant response rating, Surinam Grass” value [4, 22] was 60, the “Surinam Grass plant response rating” value [4, 23] was 75 and the “Plant response rating, Johnsongrass” value [5, 16] was 0. For the same compound, the “Johnsongrass plant response rating (0 to 100 scale)” value [5, 17] was 10, the “Plant response rating, Johnsongrass” value [5, 18] was 20 and the “Plant response rating, Johnsongrass” value [5, 19] was 75. For the same compound, the “Plant response rating, Johnsongrass” value [5, 20] was 0, the “Plant response rating, Johnsongrass” value [5, 21] was 10 and the “Plant response rating, Johnsongrass” value [5, 22] was 65. For the same compound, the “Johnsongrass plant response rating” value [5, 23] was 70, the “Plant response rating, Corn” value (corn (Zea mays); [16]) was 0 and the “Corn plant response rating (0 to 100 scale)” value (corn (Zea mays); [17]) was 0. The “Plant response rating, Corn” value (corn (Zea mays); [18]) was 20, the “Plant response rating, Corn” value (corn (Zea mays); [19]) was 55 and the “Plant response rating, Corn” value (corn (Zea mays); [20]) was 0. The “Plant response rating, Corn” value (corn (Zea mays); [21]) was 0, the “Plant response rating, Corn” value (corn (Zea mays); [22]) was 0 and the “Corn plant response rating” value (corn (Zea mays); [23]) was 0. For the same compound, the “Plant response rating, Cupgrass, Woolly” value [6, 16] was 10, the “Cupgrass, Woolly plant response rating (0 to 100 scale)” value [6, 17] was 55 and the “Plant response rating, Cupgrass, Woolly” value [6, 18] was 55. The “Plant response rating, Cupgrass, Woolly” value [6, 19] was 80, the “Plant response rating, Cupgrass, Woolly” value [6, 20] was 5 and the “Plant response rating, Cupgrass, Woolly” value [6, 22] was 55. For the same compound, the “Cupgrass, Woolly plant response rating” value [6, 23] was 75, the “Plant response rating, Ryegrass, Italian” value [7, 16] was 0 and the “Ryegrass, Italian plant response rating (0 to 100 scale)” value [7, 17] was 15. For the same compound, the “Plant response rating, Ryegrass, Italian” value [7, 18] was 40, the “Plant response rating, Ryegrass, Italian” value [7, 19] was 60 and the “Plant response rating, Ryegrass, Italian” value [7, 20] was 0. For the same compound, the “Plant response rating, Ryegrass, Italian” value [7, 21] was 0, the “Plant response rating, Ryegrass, Italian” value [7, 22] was 0 and the “Ryegrass, Italian plant response rating” value [7, 23] was 0. The “Plant response rating, Ragweed” value [8, 16] was 80, the “Ragweed plant response rating (0 to 100 scale)” value [8, 17] was 85 and the “Plant response rating, Ragweed” value [8, 18] was 90. For the same compound, the “Plant response rating, Ragweed” value [8, 19] was 95, the “Plant response rating, Ragweed” value [8, 20] was 75 and the “Plant response rating, Ragweed” value [8, 21] was 75. For the same compound, the “Plant response rating, Ragweed” value [8, 22] was 95, the “Ragweed plant response rating” value [8, 23] was 95 and the “Plant response rating, Velvetleaf” value [9, 16] was 100. For the same compound, the “Velvetleaf plant response rating (0 to 100 scale)” value [9, 17] was 100, the “Plant response rating, Velvetleaf” value [9, 18] was 100 and the “Plant response rating, Velvetleaf” value [9, 19] was 100. For the same compound, the “Plant response rating, Velvetleaf” value [9, 20] was 100, the “Plant response rating, Velvetleaf” value [9, 21] was 100 and the “Plant response rating, Velvetleaf” value [9, 22] was 100. For the same compound, the “Velvetleaf plant response rating” value [9, 23] was 100, the “Plant response rating, Soybean” value (soybean (Glycine max); [16]) was 80 and the “Soybean plant response rating (0 to 100 scale)” value (soybean (Glycine max); [17]) was 95. For the same compound, the “Plant response rating, Soybean” value (soybean (Glycine max); [18]) was 98, the “Plant response rating, Soybean” value (soybean (Glycine max); [19]) was 98 and the “Plant response rating, Bermudagrass” value [10, 16] was 90. The “Bermudagrass plant response rating (0 to 100 scale)” value [10, 17] was 98, the “Plant response rating, Bermudagrass” value [10, 18] was 98 and the “Plant response rating, Bermudagrass” value [10, 19] was 98. The “Plant response rating, Bermudagrass” value [10, 20] was 98, the “Plant response rating, Bermudagrass” value [10, 21] was 100 and the “Plant response rating, Bermudagrass” value [10, 22] was 100. For the same compound, the “Bermudagrass plant response rating” value ([10]; Preemergence, 250 g ai/ha, 0 to 100 scale, 0 no effect, 100 complete control) was 100, the “Plant response rating, Crabgrass, Large” value [11, 16] was 95 and the “Crabgrass, Large plant response rating (0 to 100 scale)” value [11, 17] was 98. For the same compound, the “Plant response rating, Crabgrass, Large” value [11, 18] was 100, the “Plant response rating, Crabgrass, Large” value [11, 19] was 100 and the “Plant response rating, Crabgrass, Large” value [11, 20] was 98. The “Plant response rating, Crabgrass, Large” value [11, 21] was 100, the “Plant response rating, Crabgrass, Large” value [11, 22] was 100 and the “Crabgrass, Large plant response rating” value [11, 23] was 100. The “Plant response rating, Oat, Wild” value (wild oat (Avena fatua); [16]) was 0, the “Oat, Wild plant response rating (0 to 100 scale)” value (wild oat (Avena fatua); [17]) was 20 and the “Plant response rating, Oat, Wild” value (wild oat (Avena fatua); [18]) was 50. For the same compound, the “Plant response rating, Oat, Wild” value (wild oat (Avena fatua); [19]) was 60, the “Plant response rating, Oat, Wild” value (wild oat (Avena fatua); [20]) was 0 and the “Plant response rating, Oat, Wild” value (wild oat (Avena fatua); [21]) was 0. The “Plant response rating, Oat, Wild” value (wild oat (Avena fatua); [22]) was 0, the “Oat, Wild plant response rating” value (wild oat (Avena fatua); [23]) was 0 and the “Plant response rating, Canarygrass” value [12, 16] was 0. The “Canarygrass plant response rating (0 to 100 scale)” value [12, 17] was 0, the “Plant response rating, Canarygrass” value [12, 18] was 0 and the “Plant response rating, Canarygrass” value [12, 19] was 0. The “Plant response rating, Chickweed” value [13, 16] was 85, the “Chickweed plant response rating (0 to 100 scale)” value [13, 17] was 90 and the “Plant response rating, Chickweed” value [13, 18] was 98. The “Plant response rating, Chickweed” value [13, 19] was 100, the “Plant response rating, Windgrass” value [14, 16] was 30 and the “Windgrass plant response rating (0 to 100 scale)” value [14, 17] was 50. The “Plant response rating, Windgrass” value [14, 18] was 70, the “Plant response rating, Windgrass” value [14, 19] was 90 and the “Plant response rating, Barley” value [15, 16] was 0. For the same compound, the “Barley plant response rating (0 to 100 scale)” value [15, 17] was 0, the “Plant response rating, Barley” value [15, 18] was 0 and the “Plant response rating, Barley” value [15, 19] was 0.
